Source: patent US20240025922A1, “TETRAHYDROPYRIDO[3,4-d]PYRIMIDINES AS HPK1 INHIBITORS” (Merck Patent GmbH, priority 2022, published 2024)

Key:
[1] = target: HPK1 (SLP76 phosphorylation at Ser376 in Jurkat and EL-4 cells) (Homo sapiens, UniProt Q92918); assay type: cell-based; conditions: αCD3/αCD28 Dynabeads stimulated cells, pSLP76 (Ser376) detection; read-out: HPK1 pSLP76 IC50
Method: Cellular Assay—Phospho-SLP-76 (Ser376).
Inhibition of HPK1 enzymatic activity in cells was determined by detection of SLP76 phosphorylation at Ser376 residue in lysate from Jurkat (human) and EL-4 (mouse) cells. Jurkat and EL-4 cells express both HPK1 and SLP76 naturally. All cells were cultured in RPMI 1640 media containing 10% heat inactivated fetal bovine serum (FBS) and 1×Penicillin-Streptomycin. In either Jurkat or El-4 assay, cells were pre-incubated with test compounds prior to T cell stimulation by respective αCD3/αCD28 Dynabeads™. For detection, plates were read on the Envision and percent inhibition and IC50 were determined by Smart fit in Genedata Analyzer.
For Jurkat cells: 35 μL cell suspension were dispensed at a density of 30,000 cells/well in 384-well plates containing HBSS (Gibco, 14025076)+0.1% BSA). 10-point logarithmic serial dilution of test compounds in DMSO were prepared by a Hamilton automated liquid handling robot and 35 nL was transferred into each well by an Echo liquid handler. After 60 min. pre-incubation, the cells were stimulated by adding 5 μL human T activator αCD3/αCD28 Dynabeads™ (Gibco, 11132D) at 1.2×107 beads/mL for 15 minutes at 37° C. Detection of Ser376 phosphorylation status was accomplished by first adding 10 μL of 5×AlphaLISA lysis buffer (Perkin Elmer, ALSU-PSLP-A500) to each well of the cell plate using a Multidrop Combi (5840300), followed by 20 minutes shaking. 10 μL cell lysate from each treatment were then transferred to a white 384-well plate (Corning 3572) and incubated with AlphaLISA acceptor beads for one hour (AlphaLISA SureFire Ultra p-SLP76(Ser376), Perkin Elmer, ALSU-PSLP-A500), and donor beads for additional 2 hours at room temperature in the dark.
For EL-4.IL2 assay, 50 μL cell suspension at 2×10^6 cells/mL in HBSS were first dispensed into 384-well plates and then 50 nL serial dilutions of test compounds were spotted to each well by an Echo liquid handler. After 60 min. incubation at 37° C., cells were stimulated by adding 5 μL mouse T cell activator αCD3/αCD28 Dynabeads™ (ThermFisher Scientific, 11452D) for 30 minutes at 37° C. After a brief spin and subsequent supernatant discarded, 12.5 μL of Cisbio lysis buffer were added to each well and plates were shaken for 30 min at 450 RPM. For detection, 4 μL prepared HTRF antibody mixture (Cisbio, 63ADK000U) in detection buffer were mixed with 16 μl of cell lysate and plates were incubated at room temperature for 19 hours prior to EnVision reading.

[2] = target: full-length human HPK1 (MAP4K1) (Homo sapiens (Human), UniProt Q92918); test: HPK1 Kinase Assay (Biochemical Assay), ADP-Glo; conditions: GST-HPK1 3.2 nM, 10 μM ATP, MBP substrate, read-out: HPK1 enzymatic IC50
full-length human HPK1 (MAP4K1), sequence (Q92918 whole entry): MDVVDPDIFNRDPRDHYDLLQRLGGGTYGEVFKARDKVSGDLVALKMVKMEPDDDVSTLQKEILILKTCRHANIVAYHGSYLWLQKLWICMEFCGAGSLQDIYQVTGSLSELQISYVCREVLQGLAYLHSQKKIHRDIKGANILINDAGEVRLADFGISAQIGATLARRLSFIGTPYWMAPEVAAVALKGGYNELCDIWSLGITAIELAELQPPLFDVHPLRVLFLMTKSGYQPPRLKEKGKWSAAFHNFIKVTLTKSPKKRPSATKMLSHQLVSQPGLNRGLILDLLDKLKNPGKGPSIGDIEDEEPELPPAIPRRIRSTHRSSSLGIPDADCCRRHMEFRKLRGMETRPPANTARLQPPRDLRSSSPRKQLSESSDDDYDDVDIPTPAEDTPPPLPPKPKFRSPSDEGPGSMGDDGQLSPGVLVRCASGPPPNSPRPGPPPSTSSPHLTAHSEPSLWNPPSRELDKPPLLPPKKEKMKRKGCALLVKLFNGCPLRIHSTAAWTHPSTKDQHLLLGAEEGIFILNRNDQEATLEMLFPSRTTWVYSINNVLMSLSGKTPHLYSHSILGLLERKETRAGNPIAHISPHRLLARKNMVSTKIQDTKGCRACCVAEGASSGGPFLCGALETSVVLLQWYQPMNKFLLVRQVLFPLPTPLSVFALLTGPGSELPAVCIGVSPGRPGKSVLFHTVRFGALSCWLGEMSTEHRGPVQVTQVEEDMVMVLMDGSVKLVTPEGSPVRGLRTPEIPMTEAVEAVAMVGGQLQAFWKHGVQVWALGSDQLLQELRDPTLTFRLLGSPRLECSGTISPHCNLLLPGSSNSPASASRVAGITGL
Method in brief: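 ADP-Glo luminescence after a 120-min kinase reaction gave percent inhibition and IC50. The enzyme was Sf21-expressed N-terminal GST full-length human HPK1 at 3.2 nM in HEPES pH 7.5 buffer with MgCl2, DTT, Brij-35 and BSA.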

HPK1 (SLP76 phosphorylation at Ser376 in Jurkat and EL-4 cells), sequence (Q92918 whole entry, looked up): as the sequence (Q92918 whole entry) above

| Compound | IC50 [1] | IC50 [2] |
| --- | --- | --- |
| Cc1c(N2CCc3cnc(Nc4ccc(NC(=O)CN5CCOCC5)nc4)cc3C2)cnc2c1NCCO2 [Example 32, N-{5-[(6-{8-methyl-1H,2H,3H-pyrido[2,3-b][1,4]oxazin-7-yl}-5,6,7,8-tetrahydro-2,6-naphthyridin-3-yl)amino]pyridin-2-yl}-2-(morpholin-4-yl)acetamide] | > 1000 nM | < 100 nM |
| Cc1cc(Nc2cc3c(cn2)CCN(c2cnc4c(c2C)NCCO4)C3)ccc1NC(=O)CN(C)C [Example 33, 2-(dimethylamino)-N-{2-methyl-4-[(6-{8-methyl-1H,2H,3H-pyrido[2,3-b][1,4]oxazin-7-yl}-5,6,7,8-tetrahydro-2,6-naphthyridin-3-yl)amino]phenyl}acetamide] | > 1000 nM | < 100 nM |
| Cc1cc(Nc2cc3c(cn2)CCN(c2cnc4c(c2C)NCCO4)C3)ccc1NC(=O)CN1CCOCC1 [Example 34, N-{2-methyl-4-[(6-{8-methyl-1H,2H,3H-pyrido[2,3-b][1,4]oxazin-7-yl}-5,6,7,8-tetrahydro-2,6-naphthyridin-3-yl)amino]phenyl}-2-(morpholin-4-yl)acetamide] | < 500 nM | < 100 nM |
| Cc1cc(Nc2ncc3c(n2)CN(c2cnc4c(c2C)NCCO4)CC3)ccc1C(=O)NC1CN(C)C1 [Example 35, 2-methyl-4-[(7-{8-methyl-1H,2H,3H-pyrido[2,3-b][1,4]oxazin-7-yl}-5H,6H,7H,8H-pyrido[3,4-d]pyrimidin-2-yl)amino]-N-(1-methylazetidin-3-yl)benzamide] | 500 to 1000 nM | < 100 nM |
| Cc1cc(Nc2ncc3c(n2)CN(c2cnc4c(c2C)NCCO4)CC3)cnc1NCCN1CCOCC1 [Example 36, 3-methyl-N5-(7-{8-methyl-1H,2H,3H-pyrido[2,3-b][1,4]oxazin-7-yl}-5H,6H,7H,8H-pyrido[3,4-d]pyrimidin-2-yl)-N2-[2-(morpholin-4-yl)ethyl]pyridine-2,5-diamine] | 500 to 1000 nM | < 100 nM |
| CN1CCc2cc(Nc3cc4c(cn3)CCN(c3cnc5c(c3Cl)NCCO5)C4)nn2CC1=O [Example 37, 2-[(6-{8-chloro-1H,2H,3H-pyrido[2,3-b][1,4]oxazin-7-yl}-5,6,7,8-tetrahydro-2,6-naphthyridin-3-yl)amino]-6-methyl-4H,5H,6H,7H,8H-pyrazolo[1,5-d][1,4]diazepin-7-one] | 500 to 1000 nM | < 100 nM |
| Cc1cc(Nc2ncc3c(n2)CN(c2cnc4c(c2C)NCCO4)CC3)ccc1C(=O)N1CC(N(C)C)C1 [Example 38, N,N-dimethyl-1-{2-methyl-4-[(7-{8-methyl-1H,2H,3H-pyrido[2,3-b][1,4]oxazin-7-yl}-5H,6H,7H,8H-pyrido[3,4-d]pyrimidin-2yl)amino]benzoyl}azetidin-3-amin] | > 1000 nM | < 100 nM |
| Cc1cc(Nc2ncc3c(n2)CN(c2cnc4c(c2C)NCCO4)CC3)ccc1C(=O)NCCN1CCOCC1 [Example 39, 2-methyl-4-[(7-{8-methyl-1H,2H,3H-pyrido[2,3-b]oxazin-7-yl}-5H,6H,7H,8H-pyrido[3,4-d]pyrimidin-2-yl)amino]-N-[2-(morpholin-4-yl)ethyl] benzamide] | < 500 nM | < 100 nM |
| Cc1c(N2CCc3cnc(Nc4ccc(CS(=O)(=O)C5CC5)nc4)nc3C2)cnc2c1NCCO2 [Example 40, 6-[(cyclopropanesulfonyl)methyl]-N-(7-{8-methyl-1H,2H,3H-pyrido[2,3-b][1,4]oxazin-7-yl}-5H,6H,7H,8H-pyrido[3,4-d]pyrimidin-2-yl) pyridin-3-amine] | < 500 nM | < 100 nM |
| Cc1c(N2CCc3cnc(Nc4ccc(CS(=O)(=O)CC5(C)COC5)cc4)nc3C2)cnc2c1NCCO2 [Example 41, 7-{8-methyl-1H,2H,3H-pyrido[2,3-b][1,4]oxazin-7-yl}-N-(4-{[(3-methyloxetan-3-yl)methanesulfonyl]methyl}phenyl)-5H,6H,7H,8H-pyrido[3,4-d]pyrimidin-2-amine] | < 500 nM | < 100 nM |
| Cc1c(N2CCc3cnc(Nc4ccc(C(=O)N5CC[C@@H](N(C)C)C5)cc4)nc3C2)cnc2c1NCCO2 [Example 42, (3R)—N,N-dimethyl-1-{4-[(7-{8-methyl-1H,2H,3H-pyrido[2,3-b][1,4]oxazin-7-yl} 5H,6H,7H,8H-pyrido[3,4-d]pyrimidin-2-yl)amino]benzoyl}pyrrolidin-3-amine] | < 500 nM | < 100 nM |
| COCCNC(=O)c1ccc(Nc2ncc3c(n2)CN(c2cnc4c(c2C)NCCO4)CC3)cc1 [Example 44, N-(2-methoxyethyl)-4-[(7-{8-methyl-1H,2H,3H-pyrido[2,3-b][1,4]oxazin-7-yl}-5H,6H,7H,8H-pyrido[3,4-d]pyrimidin-2-yl)amino]benzamide] | < 500 nM | < 100 nM |
| Cc1cc(Nc2ncc3c(n2)CN(c2cnc4c(c2C)NCCO4)CC3)ccc1NC(=O)CN(C)C [Example 45, 2-(dimethylamino)-N-{2-methyl-4-[(7-{8-methyl-1H,2H,3H-pyrido[2,3-b][1,4]oxazin-7-yl}-5H,6H,7H,8H-pyrido[3,4-d]pyrimidin-2-yl)amino]phenyl}acetamide] | < 500 nM | < 100 nM |
| CNCc1cccc(Nc2ncc3c(n2)CN(c2cnc4c(c2C)NCCO4)CC3)c1 [Example 46, 7-{8-methyl-1H,2H,3H-pyrido[2,3-b][1,4]oxazin-7-yl}-N-{3-[(methylamino)methyl]phenyl}-5H,6H,7H,8H-pyrido[3,4-d]pyrimidin-2-amine] | 500 to 1000 nM | < 100 nM |
| Cc1c(N2CCc3cnc(Nc4ccc5c(c4)CN(C)C5)cc3C2)cnc2c1NCCO2 [Example 47, 6-{8-methyl-1H,2H,3H-pyrido[2,3-b][1,4]oxazin-7-yl}-N-(2-methyl-2,3-dihydro-1H-isoindol-5-yl)-5,6,7,8-tetrahydro-2,6-naphthyridin-3-amine] | 500 to 1000 nM | < 100 nM |
| Cc1cc(Nc2ncc3c(n2)CN(c2cnc4c(c2C)NCCO4)CC3)ccc1NC(=O)CN1CCOCC1 [Example 48, N-{2-methyl-4-[(7-{8-methyl-1H,2H,3H-pyrido[2,3-b][1,4]oxazin-7-yl}-5H,6H,7H,8H-pyrido[3,4-d]pyrimidin-2-yl)amino]phenyl}-2-(morpholin-4-yl)acetamide] | < 500 nM | < 100 nM |
| Cc1c(N2CCc3cnc(Nc4ccnc(CS(C)(=O)=O)c4)nc3C2)cnc2c1NCCO2 [Example 49, 7-(8-methyl-2,3-dihydro-1H-pyrido[2,3-b][1,4]oxazin-7-yl)-N-(2-((methylsulfonyl)methyl)pyridin-4-yl)-5,6,7,8-tetrahydropyrido[3,4-d]pyrimidin-2-amine] | 500 to 1000 nM | < 100 nM |
| Cc1c(N2CCc3cnc(Nc4cccc(CS(C)(=O)=O)c4)nc3C2)cnc2c1NCCO2 [Example 50, 7-(8-methyl-2,3-dihydro-1H-pyrido[2,3-b][1,4]oxazin-7-yl)-N-(3-((methylsulfonyl)methyl)phenyl)-5,6,7,8-tetrahydropyrido[3,4-d]pyrimidin-2-amine] | < 500 nM | < 100 nM |
| Cc1c(N2CCc3cnc(Nc4ccc(CS(C)(=O)=O)nc4)cc3C2)cnc2c1NCCO2 [Example 51, 6-(8-methyl-2,3-dihydro-1H-pyrido[2,3-b][1,4]oxazin-7-yl)-N-(6-((methylsulfonyl)methyl)pyridin-3-yl)-5,6,7,8-tetrahydro-2,6-naphthyridin-3-amine] | 500 to 1000 nM | < 100 nM |
| Cc1c(N2CCc3cnc(Nc4ccc(C5(O)CCN(C)CC5)cc4)cc3C2)cnc2c1NCCO2 [Example 52, 1-methyl-4-(4-((6-(8-methyl-2,3-dihydro-1H-pyrido[2,3-b][1,4]oxazin-7-yl)-5,6,7,8-tetrahydro-2,6-naphthyridin-3-yl)amino)phenyl)piperidin-4-ol] | 500 to 1000 nM | < 100 nM |
